Read-outs that look alike come from different tables or passages of the source.
Key:
Experiment in all cases: Fluorescence anisotropy binding of BOFP to FtsZ
Details in all cases: for Kd: 50 mM Tris-HCl (pH 7.6), 50 mM KCl
[1] = target: Enterococcus faecalis FtsZ (EfsFtsZ) (Enterococcus faecalis, UniProt O08439)
Description: (§1) Fluorescence anisotropy assay for determining the affinities and thermodynamics associated with the binding of BOFP to FtsZ proteins. Fluorescence anisotropy experiments were performed using an AVIV model ATF105 spectrofluorometer at 15, 25, or 37° C. In these experiments, bandwidths were set to 4 nm in both the excitation and emission directions, with the excitation and emission wavelengths being set at 488 nm and 510 nm, respectively. BOFP (0.1 μM) was titrated with increasing concentrations (ranging from 0 to 12 μM) of FtsZ in 120 μL of buffer containing 50 mM Tris-HCl (pH 7.6) and 50 mM KCl. After each protein addition, the samples were equilibrated for 3 minutes, whereupon the fluorescence anisotropy was measured.
(§2) [formula] In this equation, r0 is the anisotropy of the protein-free compound, r∞ is the anisotropy of the compound in the presence of an infinite concentration of FtsZ, [C]tot is the total concentration of the compound, and [P]tot is the total concentration of protein with each addition. These analyses yielded the equilibrium dissociation constant (Kd) for each binding reaction.
(§3) The binding free energy (ΔG) at temperature T was derived from the corresponding Kd value determined at T using the following relationship:
(§4) [formula] The binding enthalpy (ΔH) and entropy (ΔS) were derived from linear fits of the ln(1/Kd) vs. 1/T plots shown in FIGS. 3f and 5e using the following relationship:
(§5) A quartz ultra-micro cell (Hellma) with a 2×5 mm aperture and a 15 mm center height was used for all measurements. The pathlengths in the excitation and emissions directions were 1 and 0.2 cm, respectively. All steady-state anisotropy experiments were conducted in at least triplicate, with the reported anisotropies reflecting the average values.

[2] = target: Klebsiella pneumoniae FtsZ (KpFtsZ) (Klebsiella pneumoniae, UniProt A0A0H3GRR0)
Description: as §1, §2, §3, §4, §5

[3] = target: T1, Pseudomonas aeruginosa FtsZ (PaFtsZ) (Pseudomonas aeruginosa, UniProt P47204)
T1 sequence (P47204 1-394): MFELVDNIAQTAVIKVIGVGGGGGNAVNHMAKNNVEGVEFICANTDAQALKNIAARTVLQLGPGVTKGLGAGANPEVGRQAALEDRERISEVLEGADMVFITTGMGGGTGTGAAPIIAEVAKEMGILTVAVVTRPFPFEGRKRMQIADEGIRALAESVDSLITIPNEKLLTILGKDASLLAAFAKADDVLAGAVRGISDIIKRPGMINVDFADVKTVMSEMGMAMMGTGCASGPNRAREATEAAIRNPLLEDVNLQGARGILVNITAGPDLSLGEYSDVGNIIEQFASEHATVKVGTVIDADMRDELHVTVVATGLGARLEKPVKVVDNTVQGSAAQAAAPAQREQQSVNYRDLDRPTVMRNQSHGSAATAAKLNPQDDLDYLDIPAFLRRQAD
Description: as §1, §2, §3, §4, §5

[4] = target: T2, Streptococcus agalactiae FtsZ (SagFtsZ) (Streptococcus agalactiae, UniProt Q8E183)
T2 sequence (Q8E183 1-426): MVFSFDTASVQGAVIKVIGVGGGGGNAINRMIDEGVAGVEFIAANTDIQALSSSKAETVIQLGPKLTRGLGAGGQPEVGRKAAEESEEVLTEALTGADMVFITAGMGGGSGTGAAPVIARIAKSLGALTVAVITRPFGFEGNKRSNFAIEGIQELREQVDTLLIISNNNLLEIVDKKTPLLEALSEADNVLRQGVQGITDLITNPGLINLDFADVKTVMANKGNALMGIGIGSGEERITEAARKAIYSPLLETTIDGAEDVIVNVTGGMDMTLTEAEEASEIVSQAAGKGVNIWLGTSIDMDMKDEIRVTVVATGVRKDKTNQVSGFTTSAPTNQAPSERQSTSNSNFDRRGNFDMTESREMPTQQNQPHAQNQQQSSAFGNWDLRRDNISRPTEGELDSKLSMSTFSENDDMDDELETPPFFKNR
Description: as §1, §2, §3, §4, §5

[5] = target: T3, Streptococcus pneumoniae FtsZ (SpnFtsZ) (Streptococcus pneumoniae, UniProt A0A0H2ZNE0)
T3 sequence (A0A0H2ZNE0 1-419): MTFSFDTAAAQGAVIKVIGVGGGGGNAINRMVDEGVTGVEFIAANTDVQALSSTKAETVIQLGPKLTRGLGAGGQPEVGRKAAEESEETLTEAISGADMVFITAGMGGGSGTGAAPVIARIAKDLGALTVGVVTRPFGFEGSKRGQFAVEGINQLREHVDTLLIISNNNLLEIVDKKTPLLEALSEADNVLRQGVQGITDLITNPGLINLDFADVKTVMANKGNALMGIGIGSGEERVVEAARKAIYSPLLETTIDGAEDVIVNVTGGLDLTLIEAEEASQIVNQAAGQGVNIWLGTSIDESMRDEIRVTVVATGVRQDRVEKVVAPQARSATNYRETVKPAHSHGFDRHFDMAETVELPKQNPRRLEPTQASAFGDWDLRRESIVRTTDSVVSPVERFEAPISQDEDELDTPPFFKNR
Description: as §1, §2, §3, §4, §5

[6] = linear fit of ln(1/Kd) vs. 1/T, Eq. 3

Chain of Klebsiella pneumoniae FtsZ (KpFtsZ) (A0A0H3GRR0 entry or part of it): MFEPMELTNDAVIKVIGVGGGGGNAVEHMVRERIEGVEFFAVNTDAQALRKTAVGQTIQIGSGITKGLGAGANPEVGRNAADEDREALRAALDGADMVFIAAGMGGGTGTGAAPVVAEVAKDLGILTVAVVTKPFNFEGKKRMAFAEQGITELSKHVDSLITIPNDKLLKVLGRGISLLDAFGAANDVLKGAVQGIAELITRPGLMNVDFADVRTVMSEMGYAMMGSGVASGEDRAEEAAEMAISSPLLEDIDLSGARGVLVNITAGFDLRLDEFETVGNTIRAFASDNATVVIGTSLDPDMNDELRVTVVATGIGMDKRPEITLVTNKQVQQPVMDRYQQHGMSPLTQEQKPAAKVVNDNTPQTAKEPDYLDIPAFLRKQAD
Chain of Enterococcus faecalis FtsZ (EfsFtsZ) (O08439 whole entry): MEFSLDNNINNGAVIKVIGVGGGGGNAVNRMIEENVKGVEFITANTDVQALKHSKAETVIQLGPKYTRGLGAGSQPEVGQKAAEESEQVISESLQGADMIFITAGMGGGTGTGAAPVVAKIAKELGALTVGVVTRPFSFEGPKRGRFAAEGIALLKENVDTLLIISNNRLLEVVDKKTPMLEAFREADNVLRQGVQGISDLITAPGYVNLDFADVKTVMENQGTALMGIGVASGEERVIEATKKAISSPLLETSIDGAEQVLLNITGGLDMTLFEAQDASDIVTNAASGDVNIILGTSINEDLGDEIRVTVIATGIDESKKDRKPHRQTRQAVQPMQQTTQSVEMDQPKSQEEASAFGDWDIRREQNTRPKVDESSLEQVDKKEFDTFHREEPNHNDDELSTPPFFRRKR

## CC1=CC(C)=[N+]2C1=Cc1ccc(CCC(=O)OCC(Oc3ccc(F)c(C(N)=O)c3F)c3nc(-c4ccc(C(F)(F)F)cc4)c(Br)o3)n1[B-]2(F)F (stereo not shown) [BOFP, 2-(5-bromo-4-(4-(trifluoromethyl)phenyl)-oxazol-2-yl)-2-(3-carbamoyl-2,4-difluorophenoxy)ethyl 3-(5,5-difluoro-7,9-dimethyl-5H-5λ^4,6λ^4-dipyrrolo[1,2-c:2′,1′-f][1,3,2]diazaborinin-3-yl)propanoate]
[1]
  enthalpic contribution (ΔH) to the observed ΔG of binding: 100%
[1]; 15° C., read-out: Kd −15° C.
  Kd: 1.72 ± 0.06 µM
[1]; 25° C., read-out: Kd −25° C.
  Kd: 3.05 ± 0.25 µM
[1]; 37° C., read-out: Kd −37° C.
  Kd: 4.62 ± 0.12 µM
[1]; T = 310K (37° C.), Eq. 2
  ΔG: -31.8 ± 0.42 kJ/mol
[1]; [6]
  ΔH: -33.1 ± 4.18 kJ/mol
  ΔS: −1.2 ± 3.3 cal/mol · K
[2]
  ΔH contribution to the observed ΔG of binding: > 50%
[2]; 15° C., read-out: Kd −15° C.
  Kd: 0.42 ± 0.05 µM
[2]; 25° C., read-out: Kd −25° C.
  Kd: 0.58 ± 0.04 µM
[2]; 37° C., read-out: Kd −37° C.
  Kd: 0.82 ± 0.04 µM
[2]; T = 310K (37° C.), Eq. 2
  ΔG: -36 ± 0.42 kJ/mol
[2]; [6]
  ΔH: -22.6 ± 0.42 kJ/mol
  ΔS: +10.5 ± 0.1 cal/mol · K
[3]
  ΔH contribution to the observed ΔG of binding: > 50%
[3]; 15° C., read-out: Kd −15° C.
  Kd: 0.23 ± 0.02 µM
[3]; 25° C., read-out: Kd −25° C.
  Kd: 0.36 ± 0.06 µM
[3]; 37° C., read-out: Kd −37° C.
  Kd: 0.58 ± 0.06 µM
[3]; T = 310K (37° C.), Eq. 2
  ΔG: -36.8 ± 0.42 kJ/mol
[3]; [6]
  ΔH: -32.2 ± 0.84 kJ/mol
  ΔS: +3.8 + 0.6 cal/mol · K
[4]
  ΔH contribution to the observed ΔG of binding: > 50%
[4]; 15° C., read-out: Kd −15° C.
  Kd: 0.62 ± 0.05 µM
[4]; 25° C., read-out: Kd −25° C.
  Kd: 1.02 ± 0.09 µM
[4]; 37° C., read-out: Kd −37° C.
  Kd: 1.31 ± 0.04 µM
[4]; [6]
  ΔH: -27.6 ± 2.5 kJ/mol
  ΔS: +5.4 ± 2.0 cal/mol · K
[5]
  ΔS contribution to the observed ΔG of binding: > 50%
[5]; 15° C., read-out: Kd −15° C.
  Kd: 3.02 ± 0.3 µM
[5]; 25° C., read-out: Kd −25° C.
  Kd: 3.49 ± 0.25 µM
[5]; 37° C., read-out: Kd −37° C.
  Kd: 3.81 ± 0.69 µM
[5]; T = 310K (37° C.), Eq. 2
  ΔG: -32.2 ± 0.42 kJ/mol
[5]; [6]
  ΔH: -7.95 ± 1.3 kJ/mol
  ΔS: +18.7 ± 1.2 cal/mol · K

From US12061201B2, “Fluorescent probes for the visualization of FtsZ in gram-positive and gram-negative bacterial pathogens” (Rutgers, The State University of New Jersey, priority 2019, dated 2024)
